Measurements reported in ChEMBL document CHEMBL1201862, “PubChem BioAssay data set” (2004).
Calls of active or inactive are those of the source.

Assays:
[1] = biological target: Tyrosyl-DNA phosphodiesterase 2 (Homo sapiens, UniProt O95551); test: human TDP2 enzyme inhibitors, dose response, biochemical, epi absorbance, IC50 (AID 743297)
[2] = biological target: T1, Histone-lysine N-methyltransferase NSD2 (Homo sapiens, UniProt O96028); assay type: biochemical
T1 sequence (O96028 whole entry): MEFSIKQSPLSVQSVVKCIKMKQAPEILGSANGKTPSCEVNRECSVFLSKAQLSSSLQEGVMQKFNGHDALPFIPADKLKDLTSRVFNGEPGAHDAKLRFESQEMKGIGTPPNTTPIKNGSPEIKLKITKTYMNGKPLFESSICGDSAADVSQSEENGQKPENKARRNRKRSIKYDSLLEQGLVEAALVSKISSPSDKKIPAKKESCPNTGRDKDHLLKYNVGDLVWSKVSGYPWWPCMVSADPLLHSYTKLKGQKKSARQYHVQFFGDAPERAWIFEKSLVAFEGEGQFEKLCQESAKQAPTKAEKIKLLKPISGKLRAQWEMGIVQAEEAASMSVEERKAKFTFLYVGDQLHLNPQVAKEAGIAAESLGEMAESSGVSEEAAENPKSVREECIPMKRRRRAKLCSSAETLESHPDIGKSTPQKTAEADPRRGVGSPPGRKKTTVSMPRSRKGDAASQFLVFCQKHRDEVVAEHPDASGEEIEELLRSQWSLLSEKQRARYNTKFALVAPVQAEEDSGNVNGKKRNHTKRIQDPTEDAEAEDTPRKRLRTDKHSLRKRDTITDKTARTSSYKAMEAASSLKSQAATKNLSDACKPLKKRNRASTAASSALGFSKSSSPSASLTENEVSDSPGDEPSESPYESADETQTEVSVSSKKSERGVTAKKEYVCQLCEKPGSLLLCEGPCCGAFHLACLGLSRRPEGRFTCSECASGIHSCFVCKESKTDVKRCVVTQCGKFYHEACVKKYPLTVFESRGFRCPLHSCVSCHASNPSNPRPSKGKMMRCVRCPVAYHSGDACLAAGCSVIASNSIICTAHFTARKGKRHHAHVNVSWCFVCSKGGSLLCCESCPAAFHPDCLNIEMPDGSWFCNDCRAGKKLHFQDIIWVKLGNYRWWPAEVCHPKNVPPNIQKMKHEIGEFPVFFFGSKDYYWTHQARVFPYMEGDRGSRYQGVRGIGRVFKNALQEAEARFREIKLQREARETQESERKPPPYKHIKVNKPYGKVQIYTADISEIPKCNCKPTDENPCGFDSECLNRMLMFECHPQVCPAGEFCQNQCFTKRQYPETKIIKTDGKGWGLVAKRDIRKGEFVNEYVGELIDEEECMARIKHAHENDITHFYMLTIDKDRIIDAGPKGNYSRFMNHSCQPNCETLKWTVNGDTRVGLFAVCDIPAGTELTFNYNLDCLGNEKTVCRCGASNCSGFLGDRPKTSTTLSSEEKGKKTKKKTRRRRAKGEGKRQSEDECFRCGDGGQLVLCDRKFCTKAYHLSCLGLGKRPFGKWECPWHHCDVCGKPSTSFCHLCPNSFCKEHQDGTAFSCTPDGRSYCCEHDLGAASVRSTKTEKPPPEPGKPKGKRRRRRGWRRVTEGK

[3] = growth suppression of PTEN-null colon cells, dose response, cell-based, HCT116 PTEN knockout (AID 1047); assay type: functional;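 also: HCT116 colon tumor cells with PTEN knocked out; cells exposed to compound for 60 hours before readout; potency for loss of cell viability measured by luminescence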
[4] = biological target: Serine/threonine-protein phosphatase (Homo sapiens, UniProt Q9BPW0); test: PP5 phosphatase inhibitors, dose response, biochemical, fluorescence (AID 2395)
Chain of Serine/threonine-protein phosphatase (Q9BPW0 whole entry): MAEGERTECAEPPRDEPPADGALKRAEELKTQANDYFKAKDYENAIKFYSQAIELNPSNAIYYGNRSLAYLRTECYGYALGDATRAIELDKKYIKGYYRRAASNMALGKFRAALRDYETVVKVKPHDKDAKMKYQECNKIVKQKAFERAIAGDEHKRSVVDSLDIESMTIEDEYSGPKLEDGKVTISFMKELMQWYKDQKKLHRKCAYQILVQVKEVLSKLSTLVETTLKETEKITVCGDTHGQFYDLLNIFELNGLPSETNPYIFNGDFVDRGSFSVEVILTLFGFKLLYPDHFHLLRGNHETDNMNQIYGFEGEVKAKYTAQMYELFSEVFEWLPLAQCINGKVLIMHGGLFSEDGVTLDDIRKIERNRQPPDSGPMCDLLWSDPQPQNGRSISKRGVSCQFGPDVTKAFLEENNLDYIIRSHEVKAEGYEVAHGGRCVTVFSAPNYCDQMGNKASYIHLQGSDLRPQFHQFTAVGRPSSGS

[5] = biological target: T2, Sentrin-specific protease 8 (Homo sapiens, UniProt Q96LD8); test: SENP8 protease inhibitors, SAR follow-up, biochemical, luminescence (AID 504501); assay type: functional
T2 sequence (Q96LD8 whole entry): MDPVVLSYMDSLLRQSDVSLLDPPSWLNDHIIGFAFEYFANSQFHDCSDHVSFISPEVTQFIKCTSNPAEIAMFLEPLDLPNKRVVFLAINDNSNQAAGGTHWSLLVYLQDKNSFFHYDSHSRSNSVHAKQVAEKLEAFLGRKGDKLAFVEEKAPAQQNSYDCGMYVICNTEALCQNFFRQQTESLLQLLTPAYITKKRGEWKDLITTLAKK

[6] = biological target: T3, Sentrin-specific protease 7 (Homo sapiens, UniProt Q9BQF6); test: SENP7 protease inhibitors, SAR follow-up, biochemical, luminescence (AID 504497); assay type: functional
T3 sequence (Q9BQF6 whole entry): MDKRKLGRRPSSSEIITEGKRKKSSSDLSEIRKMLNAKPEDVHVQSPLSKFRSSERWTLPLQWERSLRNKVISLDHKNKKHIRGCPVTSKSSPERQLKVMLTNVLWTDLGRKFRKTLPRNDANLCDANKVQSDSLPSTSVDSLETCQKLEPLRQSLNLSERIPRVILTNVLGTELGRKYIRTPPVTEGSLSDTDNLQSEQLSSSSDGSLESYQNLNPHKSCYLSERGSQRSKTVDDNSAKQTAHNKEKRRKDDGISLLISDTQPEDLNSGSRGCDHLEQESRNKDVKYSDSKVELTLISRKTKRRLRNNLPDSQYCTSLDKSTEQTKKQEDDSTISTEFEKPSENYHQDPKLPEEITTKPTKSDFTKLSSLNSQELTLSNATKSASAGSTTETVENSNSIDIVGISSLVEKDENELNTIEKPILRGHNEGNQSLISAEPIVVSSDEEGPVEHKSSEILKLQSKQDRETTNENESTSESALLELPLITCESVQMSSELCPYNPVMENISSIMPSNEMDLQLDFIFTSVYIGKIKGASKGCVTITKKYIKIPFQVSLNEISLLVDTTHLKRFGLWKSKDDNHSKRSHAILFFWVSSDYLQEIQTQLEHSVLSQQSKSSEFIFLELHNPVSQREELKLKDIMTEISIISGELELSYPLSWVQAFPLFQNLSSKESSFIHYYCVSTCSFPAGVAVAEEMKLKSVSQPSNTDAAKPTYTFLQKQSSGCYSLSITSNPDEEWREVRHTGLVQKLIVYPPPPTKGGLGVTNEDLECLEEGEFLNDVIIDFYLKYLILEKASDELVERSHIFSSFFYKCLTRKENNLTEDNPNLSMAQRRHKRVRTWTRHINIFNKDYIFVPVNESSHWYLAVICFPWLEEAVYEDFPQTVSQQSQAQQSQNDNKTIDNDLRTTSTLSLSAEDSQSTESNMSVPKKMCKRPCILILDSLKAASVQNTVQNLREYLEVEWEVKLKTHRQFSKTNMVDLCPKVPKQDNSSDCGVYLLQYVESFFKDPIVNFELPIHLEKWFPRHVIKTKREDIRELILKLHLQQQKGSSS

Chain of Tyrosyl-DNA phosphodiesterase 2 (O95551 whole entry): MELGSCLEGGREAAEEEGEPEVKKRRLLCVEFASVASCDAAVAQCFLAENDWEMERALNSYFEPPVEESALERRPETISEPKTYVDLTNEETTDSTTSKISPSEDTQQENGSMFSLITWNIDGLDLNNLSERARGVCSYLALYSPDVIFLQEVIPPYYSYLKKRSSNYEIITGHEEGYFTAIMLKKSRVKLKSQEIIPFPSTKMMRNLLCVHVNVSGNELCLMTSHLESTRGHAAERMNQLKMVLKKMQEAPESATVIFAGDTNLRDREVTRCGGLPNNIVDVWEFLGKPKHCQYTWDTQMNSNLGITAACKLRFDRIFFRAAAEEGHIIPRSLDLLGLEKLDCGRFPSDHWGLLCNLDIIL

Row | Structure (SMILES) | IC50 [1] | AC50 [2] | EC50 [3] | IC50 [4] | IC50 [5] | IC50 [6]
1 | CCOC(=O)C1=C(COC(=O)c2ccc([N+](=O)[O-])s2)NC(=O)NC1C (stereo unspecified) | 52.5 µM (inactive) | 5.86 µM (active) |  |  |  | 
2 | Oc1cccc(/C=N/Nc2cc(N3CCCC3)nc(N3CCCC3)n2)c1 |  |  | 20.3 µM (active) | 5.83 µM (active) | > 99 µM (inactive) | 49.7 µM (active)
